Results reported in US7687546B2, “Quaternary ammonium compound, process for producing the same, therapeutic agent for cerebrovascular disorder, and therapeutic agent for heart disease” (Activus Pharma Co., Ltd., priority 2004, dated 2010).
Read-outs that look alike come from different tables or passages of the source.

Legend:
[1] = system: ouabain-induced arrhythmia model; assay: Ouabain-induced arrhythmia model in guinea pigs; format: in vivo, guinea pigs (Hartley strain); conditions: dose 3 mg/kg i.v. immediately before ouabain infusion 3 μg/0.1 ml/min
Source text: After guinea pigs (Hartley strain, age 6 weeks) were anesthetized with urethane, induction electrodes were attached to the hind limbs and fore limbs, and standard 2-lead electrocardiograms were monitored with an animal electrocardiogram analysis system (ECG-01, Japan Energy). After confirming that the waveforms of the electrocardiogram and heart rate were within the normal range, an incision was made in the epidermis of the neck followed by inserting a breathing tube into the trachea and cannulating a polyethylene tube into the left external jugular vein and left common carotid artery.
Immediately after administering a compound of the present invention dissolved in a physiological saline solution into the right external jugular vein, ouabain was continuously infused at 3 μg/0.1 ml/min through the cannulated polyethylene tube into the left external jugular vein using a syringe pump (Atom Syringe Pump 1235 (trade name), Atom Medical Corporation).
In addition, the polyethylene tube cannulated in the left common carotid artery was connected to a pressure transducer (P23XL, Gould Electronics), and fed to a pressure processor signal conditioner (TA-11, Gould Electronics) to record blood pressure and heart rate on a thermal plate recorder.
The results were assessed by comparing the dose (μg/kg) of ouabain administered until the appearance of arrhythmia and occurrence of cardiac arrest (arrhythmia is not induced even if a large dose of ouabain is administered if antiarrhythmic effects are high). Furthermore, a solvent dose group (administered only physiological saline in an amount equal to that of the test drug groups), and a positive control group administered a typical antiarrhythmic disopyramide phosphate (physiological saline solution), were also provided.

[2] = system: model of myocardial ischemia-reperfusion injury; assay: Model of myocardial ischemia-reperfusion injury in rats; format: in vivo; conditions: 3 mg/kg i.v. 5 minutes before 5 minutes coronary ligation, 8 rats per group; for Incidence of Ventricular Fibrillation (%) / Incidence of Ventricular Tachycardia (%): monitored 5 minutes after reperfusion; for Mortality Rate (%): then reperfusion
[3] = system: middle cerebral artery occlusion and reperfusion model; assay: Cerebral infarction model: middle cerebral artery occlusion and reperfusion (infarct area, neurological symptoms, motor function); format: in vivo, rats (Crj: Wistar strain); parameters: Improvement of neurological symptoms* (total score): scale not given here; conditions: rats, average of 10 animals; for Improvement of neurological symptoms* (total score) / Improvement of motor function (time stayed on rotor rod: seconds): single i.v. dose 3 mg/kg; for Improvement of neurological symptoms* (total score): 24 hours after occlusion, total score per Table 4, smaller = greater effect; for Improvement of motor function (time stayed on rotor rod: seconds): rotor rod 14 rotations per minute, maximum 1 minute; for Cerebral infarction reduction rate (%): single intravenous dose 3 mg/kg immediately before reperfusion, vs physiological saline group, bigger = greater effect
Method: In this example, a cerebral infarction model was prepared using rats in which reperfusion injury was induced by ischemia and then reperfusion of the middle cerebral artery using the obturator method. The efficacy of compounds of the present invention following single-dose intravenous administration at dose of 3 mg/kg was evaluated in terms of infarct area, neurological symptoms and motor function.
In addition, Edaravone (trade name, Mitsubishi Pharma Corporation) was used as a reference compound. The compounds of the present invention were stored in a refrigerator under protection from light, while Edaravone (trade name) was stored at room temperature under protection from light.
Compounds of present invention: 2 mL of physiological saline was added directly to tube containing 3 mg aliquots of a compound of the present invention to dissolve and prepare solutions having a concentration of 3 mg/2 mL. These samples were prepared at the time of use.
Edaravone: Since Edaravone is an injectable solution having a concentration of 30 mg/20 mL, the required amounts were divided up and used.
Rats: Crj: Wistar strain, males, age 7 weeks (Charles River Laboratories Japan, Inc.)
The test compounds were administered in a single dose into the tail vein using a 1 mL syringe and 27 G injection needle immediately before the reperfusion.
The rats were anesthetized by intraperitoneal administration of sodium pentobarbital at dose of 40 mg/kg (Nembutal (trade name), Dainippon Pharmaceutical Co., Ltd.), and a middle cerebral artery occlusion and reperfusion model was prepared in accordance with the method of Koizumi et al. (Non-Patent Document 2). Namely, the animals were warmed to 37° C. and held in the dorsal position while breathing spontaneously. A midline cervical incision was made, and then the right external carotid artery and right internal carotid artery were separated without damaging the vagus nerve. The right common carotid artery and right external carotid artery were ligated, and a suture was attached to the origin of the internal carotid artery in preparation for ligation and maintenance of occlusion following insertion of an obturator into the internal carotid artery. Moreover, a small incision was made in the right common carotid artery, an obturator provided with an approximately 17 mm silicon-coated suture was inserted into the internal carotid artery, and the internal carotid artery was ligated. Two hours after ligation, the obturator was removed under unanesthesia to reperfuse. Furthermore, flexion of the contralateral forelimb was confirmed 30 minutes after occlusion of the middle cerebral artery.
The following neurological symptoms were evaluated 24 hours after occlusion of the middle cerebral artery according to the evaluation method of Petullo et al. (Non-Patent Document 3). Neurological symptoms consisted of flexion of the forelimbs, torso twisting, resistance when pushing on the back of the right or left shoulder (Lateral push), circling, return of the hindlimb to the floor when lifted from the floor (Hindlimb placement), behavior when the head is faced downward on an angle (Inverted angle board) and a locomotor activity test.
Flexion of the forelimbs: flexion of the forelimbs was observed when the animals were lifted up by the tail.
Torso twisting: Torso twisting was observed when the animals were lifted up by the tail.
Lateral push: Resistance was observed when pushing on the back of the right or left shoulder.
Hindlimb placement: The animals were observed as to whether or not the hindlimb immediately returns to the floor after being lifted from the floor when placed on a horizontal floor.
locomotor activity: locomotor activity was observed when the animals were placed in a polycarbonate cage.
The aforementioned tests were scored based on the criteria described in the following documents, followed by calculation of total scores (see Table 4 “Neurological Symptom Evaluation Criteria and Scores”). […]

[4] = system: model of myocardial ischemia reperfusion injury; assay: Model of myocardial ischemia-reperfusion injury in dogs; format: in vivo; conditions: 3 mg/kg into the femoral vein 10 minutes before 20 minutes coronary occlusion, then reperfusion
Method: In order to confirm the efficacy of compounds of the present invention on myocardial infarction and arrhythmia caused by myocardial infarction, a pharmacological study was conducted using a model of myocardial ischemia reperfusion injury in dogs for the compounds used in Example 1.
Dogs having body weights of approximately 10 kg were anesthetized with pentobarbital (trade name) (30 mg/ml/kg) followed by shaving the surgical site after starting artificial respiration. The femoral vein and femoral artery were separated followed by cannulation. The femoral vein was used as the administration route for the test substances, while the femoral artery was used to measure blood pressure.
Next, after opening the left chest, making an incision in the pericardium and exposing the left ventricle, the left coronary artery was separated. A silk suture was passed through the coronary artery to occlude, followed by the attachment of an electromagnetic flow meter probe for measuring blood flow.
In addition, a pair of ultrasound crystal probes was fixed in position to measure changes in ventricular wall length as a indicator of myocardial contractile force, and indwelling needle was installed for measuring left intraventricular pressure. Compounds of the present invention were administered into the femoral vein at 3 mg/kg (15% physiological saline solution) followed 10 minutes later by occluding the coronary artery for 20 minutes, and subsequently reperfusing the coronary artery. Myocardial contraction following ischemia-reperfusion was compared for each group based on a value of 100 for myocardial contraction prior to ischemic reperfusion. In addition, comparisons were also made with a solvent control group administered only physiological saline.

guinea pigs [5] = conditions: guinea pig, in vivo
guinea pigs [6] = assay: Study of arrhythmia-inducing action in guinea pigs (without ouabain); conditions: no ouabain
[7] = dose 3.9 mg/kg, up to 1 hour after administration

Compound	Ouabain (μg/kg) administered until Cardiac arrest [1]	Ouabain (μg/kg) administered until appearance of Arrhythmia [1]	Incidence of Ventricular Fibrillation (%) [2]	Incidence of Ventricular Tachycardia (%) [2]	Mortality Rate (%) [2]	Improvement of neurological symptoms* (total score) [3]	Improvement of motor function (time stayed on rotor rod: seconds) [3]	Cerebral infarction reduction rate (%) [3]	Myocardial Contraction (%) (Based on a value of 100% for prior to ischemia-reperfusion) [4]	Occurrence of Arrhythmia (guinea pigs [5]; 3 mg/kg)	Occurrence of cardiac arrest (guinea pigs [5]; 3 mg/kg)	Occurrence of Arrhythmia (guinea pigs [5]; 10 mg/kg)	Occurrence of cardiac arrest (guinea pigs [5]; 10 mg/kg)	Occurrence of Arrhythmia (guinea pigs [6]; [7])	Occurrence of cardiac arrest (guinea pigs [6]; [7])	Occurrence of cardiac arrest (guinea pigs [6]; dose 12.9 mg/kg (10 mg/kg as disopyramide))	Occurrence of cardiac arrest (guinea pigs [6]; dose 12.9 mg/kg (10 mg/kg as disopyramide), listed as disopyramide phosphate)
C[N+](C)(C)CCOc1ccc(O)c(S(=O)(=O)[O-])c1 [Compound 66]	237 µg/kg	168 µg/kg	12.5%	62.5%	12.5%	6.35	49.6 s	47.9%	80%	No	No	No	No	–	–	–	–
CC[N+](CC)(CC)CCOc1ccc(S(=O)(=O)[O-])c(O)c1 [Compound 71]	239 µg/kg	171 µg/kg	12.5%	62.5%	0%	6.30	48.8 s	46.3%	72%	No	No	No	No	–	–	–	–
C[N+](C)(C)CCCOc1cc(S(=O)(=O)[O-])ccc1O [Compound 77]	227 µg/kg	167 µg/kg	12.5%	75.0%	12.5%	6.40	49.3 s	47.3%	75%	No	No	No	No	–	–	–	–
CC(C)N(CCC(C(N)=O)(c1ccccc1)c1ccccn1)C(C)C (stereo not drawn) [Disopyramide phosphate, disopyramide phosphate, reference compound]	247 µg/kg	175 µg/kg	–	–	–	–	–	–	–	–	–	–	–	No	No	Yes	cardiac arrest occurred immediately after administration
